From patent US11458138B2 (Novartis AG, priority 2017, dated 2022)

Experiments:
LATS1 = LATS1 (Homo sapiens (Human), UniProt O95835); assay: LATS1 biochemical assay (Table 1A, Compound Examples 1-290; method in the earlier part)
[1] = system: Phospho-YAP (SER127) in HaCaT cells; assay: pYAP HTRF Assay (HaCaT Cells); assay type: cell-based, human; conditions: Homo sapiens, 2 hours
Summary of the method: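 HaCaT cells at 5500 cells/well were cultured 48 hours at 37° C, then treated with compound for 2 hours. Phospho-YAP (Ser127) was detected by HTRF after an overnight (20 hrs) room-temperature incubation, read as the 665 nm/620 nm ratio.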

[2] = system: YAP nuclear translocation in HaCaT cells; assay: YAP Translocation Assay (HaCaT Cells); assay type: cell-based, human; conditions: Homo sapiens, 24 hours
Summary of the method: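 HaCaT cells (20,000/well) in DMEM + 10% FBS were plated overnight at 37° C, then exposed to compound for 24 h at 37° C. Cells were fixed with PFA, permeabilized with 0.1% Triton/1.5% BSA and imaged by high-content imaging.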

[3] = system: Phospho-YAP (Ser127) in JHH-5 cells; assay: pYAP HTRF Assay (JHH-5 cells); assay type: cell-based; conditions: 2 hours
Description: Briefly, JHH-5 cells are suspended at 0.48×10^6 cells/ml in William's E medium without phenol-red (Thermo Fisher Scientific Gibco catalog number A1217601) supplemented with 10% (v/v) heat-inactivated fetal bovine serum (Thermo Fisher Scientific Gibco catalog number 16140071) and penicillin-streptomycin at 100 U/ml each (Thermo Fisher Scientific Gibco catalog number 15140122). Cells are dispensed into 384well clear bottom culture plates (50 ul/well, at 24000 cells per well, Greiner catalog number 781091), and incubated for 24 hours in a cell culture incubator at 37° C. Test compounds are transferred into culture plates containing JHH-5 cells using an Echo550 (Labcyte) acoustic dispenser (50 nl/well), followed by incubation for 2 hours at 37° C. Lysis buffer (part of CisBio kit catalog number 64YAPPEI) is added to the assay plates as a four-fold concentrate (corresponding to 16 ul/well) and incubated for 30 minutes at room temperature with agitation. Lysate is transferred from culture plates into white low-volume 384well assay plates (12 ul/well, Greiner catalog number 784075), followed by the addition of 3 ul/well of detection antibodies (part of CisBio kit catalog number 64YAPPEI: 1:40 dilution of each pYAP d2 antibody and pYAP cryptate antibody stocks). The plates are sealed and incubated overnight (18 hours) at room temperature protected from light. Plates are read on an EnVision plate reader (Perkin Elmer) at emission wavelengths of 665 nm and 620 nm. The HTRF signal ratio x per well is calculated as [x=Signal(665 nm)/Signal(620 nm)×10000] as specified in the manufacturer's protocol.

Sequence of LATS1 (O95835 whole entry, looked up): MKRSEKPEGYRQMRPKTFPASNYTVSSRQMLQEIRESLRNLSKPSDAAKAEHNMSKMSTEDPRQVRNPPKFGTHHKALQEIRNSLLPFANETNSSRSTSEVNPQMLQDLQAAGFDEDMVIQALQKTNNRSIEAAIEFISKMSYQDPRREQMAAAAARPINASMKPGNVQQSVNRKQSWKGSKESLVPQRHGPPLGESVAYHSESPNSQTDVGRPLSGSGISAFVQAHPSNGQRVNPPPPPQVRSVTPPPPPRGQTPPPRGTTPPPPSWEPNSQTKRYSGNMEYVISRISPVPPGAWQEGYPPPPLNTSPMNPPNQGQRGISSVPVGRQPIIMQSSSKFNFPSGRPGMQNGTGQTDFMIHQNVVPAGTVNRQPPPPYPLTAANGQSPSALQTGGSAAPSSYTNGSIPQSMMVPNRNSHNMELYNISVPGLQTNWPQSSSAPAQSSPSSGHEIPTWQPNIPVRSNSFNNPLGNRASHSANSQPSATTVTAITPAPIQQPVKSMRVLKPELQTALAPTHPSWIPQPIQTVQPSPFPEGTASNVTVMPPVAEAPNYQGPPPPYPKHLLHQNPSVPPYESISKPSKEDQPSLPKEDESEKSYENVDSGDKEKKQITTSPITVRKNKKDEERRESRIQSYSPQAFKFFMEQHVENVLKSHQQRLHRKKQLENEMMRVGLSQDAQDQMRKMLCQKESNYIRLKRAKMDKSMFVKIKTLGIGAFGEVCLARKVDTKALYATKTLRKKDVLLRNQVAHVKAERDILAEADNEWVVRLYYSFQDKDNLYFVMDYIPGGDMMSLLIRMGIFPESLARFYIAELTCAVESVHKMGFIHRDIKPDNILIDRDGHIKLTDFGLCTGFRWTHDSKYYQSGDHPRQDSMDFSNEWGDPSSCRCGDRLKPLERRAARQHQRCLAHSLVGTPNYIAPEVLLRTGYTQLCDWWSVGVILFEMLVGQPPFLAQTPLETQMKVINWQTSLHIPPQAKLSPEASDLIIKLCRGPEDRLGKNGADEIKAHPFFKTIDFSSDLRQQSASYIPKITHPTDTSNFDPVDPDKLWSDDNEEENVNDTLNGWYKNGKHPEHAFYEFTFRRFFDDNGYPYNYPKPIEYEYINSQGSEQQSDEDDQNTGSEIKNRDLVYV
Sequence of LATS1 (Q7L9L4 whole entry partner, looked up): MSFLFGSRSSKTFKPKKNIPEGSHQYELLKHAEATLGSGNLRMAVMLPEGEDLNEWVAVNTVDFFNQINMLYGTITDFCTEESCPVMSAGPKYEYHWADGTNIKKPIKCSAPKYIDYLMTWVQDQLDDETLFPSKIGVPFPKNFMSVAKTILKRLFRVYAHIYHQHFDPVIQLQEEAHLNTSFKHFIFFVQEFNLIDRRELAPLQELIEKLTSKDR

Structure (SMILES) | IC50 (LATS1) | IC50 [3] | IC50 [1] | EC50 [2]
CCN(CC)c1nc(-c2ccncc2)nc2cnccc12 [Example 2] | 1 nM | > 10000 nM | 67 nM | 584 nM
CCN(c1nc(-c2ccncc2)nc2cnccc12)C(C)C [Example 3, N-ethyl-N-(propan-2-yl)-2-(pyridin-4-yl)pyrido[3,4-d]pyrimidin-4-amine] | 1 nM | 1000 nM | 853 nM | 641 nM
COCC(C)(C)Nc1nc(-c2ccncc2)nc2cnccc12 [Example 7, N-(1-methoxy-2-methylpropan-2-yl)-2-(pyridin-4-yl)pyrido[3,4-d]pyrimidin-4-amine] | 2 nM | 1600 nM | 165 nM | 733 nM
COCCC(C)(C)Nc1nc(-c2ccncc2)nc2cnccc12 [Example 8, N-(4-methoxy-2-methylbutan-2-yl)-2-(pyridin-4-yl)pyrido[3,4-d]pyrimidin-4-amine] | 3 nM | 1900 nM | 198 nM | 1200 nM
CCN(C)c1nc(-c2ccncc2)nc2cnccc12 [Example 10, N-ethyl-N-methyl-2-(pyridin-4-yl)pyrido[3,4-d]pyrimidin-4-amine] | 3 nM | 8700 nM | 2960 nM | 3550 nM
CC(C)(Nc1nc(-c2ccncc2)nc2cnccc12)C1CCCCC1 [Example 15, N-(2-cyclohexylpropan-2-yl)-2-(pyridin-4-yl)pyrido[3,4-d]pyrimidin-4-amine] | 4 nM | 4100 nM | 660 nM | 3480 nM
CC(C)(CC(=O)O)Nc1nc(-c2ccncc2)nc2cnccc12 [Example 40, 3-methyl-3-{[2-(pyridin-4-yl)pyrido[3,4-d]pyrimidin-4-yl]amino}butanoic acid] | 328 nM | > 10000 nM | > 10000 nM | > 20000 nM
CC(C)(O)C(C)(Nc1nc(-c2ccncc2)nc2cnccc12)C(F)(F)F (stereo not drawn) [Example 50, 4,4,4-trifluoro-2,3-dimethyl-3-{[2-(pyridin-4-yl)pyrido[3,4-d]pyrimidin-4-yl]amino}butan-2-ol] | 5 nM | > 10000 nM | 17000 nM | 3810 nM
CC(C)(CCO)Nc1nc(-c2ccncc2)nc2cnccc12 [Example 61, 3-methyl-3-{[2-(pyridin-4-yl)pyrido[3,4-d]pyrimidin-4-yl]amino}butan-1-ol] | 1 nM | 1400 nM | 141 nM | 517 nM
FC(F)(F)C1(Nc2nc(-c3ccncc3)nc3cnccc23)CC1 [Example 64, 2-(pyridin-4-yl)-N-[1-(trifluoromethyl)cyclopropyl]pyrido[3,4-d]pyrimidin-4-amine] | 1 nM | 2100 nM | 63 nM | 479 nM
CCC(C)Nc1nc(-c2ccncc2)nc2cnccc12 (stereo not drawn) [Example 68, N-(butan-2-yl)-2-(pyridin-4-yl)pyrido[3,4-d]pyrimidin-4-amine] | 2 nM | 3500 nM | 1230 nM | 3390 nM
C[C@]1(Nc2nc(-c3ccncc3)nc3cnccc23)C[C@@H](O)C1 [Example 70, (1r,3s)-3-methyl-3-{[2-(pyridin-4-yl)pyrido[3,4-d]pyrimidin-4-yl]amino}cyclobutan-1-ol] | 3 nM | 4000 nM | 422 nM | 1680 nM
CC(C)(O)C(C)(C)Nc1nc(-c2ccncc2)nc2cnccc12 [Example 71, 2,3-dimethyl-3-{[2-(pyridin-4-yl)pyrido[3,4-d]pyrimidin-4-yl]amino}butan-2-ol] | 4 nM | > 10000 nM | 26 nM | 1570 nM
CC(C)(C)CC(C)(C)Nc1nc(-c2ccncc2)nc2cnccc12 [Example 72, 2-(pyridin-4-yl)-N-(2,4,4-trimethylpentan-2-yl)pyrido[3,4-d]pyrimidin-4-amine] | 4 nM | 4600 nM | 1170 nM | 3650 nM
C[C@H](N(C)c1nc(-c2ccncc2F)nc2cnccc12)C(F)(F)F [Example 136, 2-(3-fluoropyridin-4-yl)-N-methyl-N-[(2S)-1,1,1-trifluoropropan-2-yl]pyrido[3,4-d]pyrimidin-4-amine] | 2 nM | 1300 nM | 1140 nM | 2960 nM

Now from value to compound, other results behind:

IC50 (LATS1) | IC50 [3] | Structure (SMILES) | IC50 [1] | EC50 [2]
11 nM | 2100 nM | CC(C)(Cc1c[nH]c2ccccc12)Nc1nc(-c2ccncc2)nc2cnccc12 [Example 79, N-[1-(1H-indol-3-yl)-2-methylpropan-2-yl]-2-(pyridin-4-yl)pyrido[3,4-d]pyrimidin-4-amine] | 765 nM | 3870 nM
21 nM | > 10000 nM | CC(Nc1nc(-c2ccncc2)nc2cnccc12)(C(=O)O)C(F)(F)F (stereo not drawn) [Example 84, 3,3,3-trifluoro-2-methyl-2-{[2-(pyridin-4-yl)pyrido[3,4-d]pyrimidin-4-yl]amino}propanoic acid] | 65200 nM | > 20000 nM
25 nM | > 10000 nM | OCCNc1nc(-c2ccncc2)nc2cnccc12 [Example 85, 2-{[2-(pyridin-4-yl)pyrido[3,4-d]pyrimidin-4-yl]amino}ethan-1-ol] | 31000 nM | 9810 nM
1 nM | 5700 nM | CC1(Nc2nc(-c3ccncc3)nc3cnccc23)CC1 [Example 99, N-(1-methylcyclopropyl)-2-(pyridin-4-yl)pyrido[3,4-d]pyrimidin-4-amine] | 113 nM | 606 nM
2 nM | 1500 nM | CC(C)(CN)Nc1nc(-c2ccncc2)nc2cnccc12 [Example 110, N-(1-amino-2-methylpropan-2-yl)-2-(pyridin-4-yl)pyrido[3,4-d]pyrimidin-4-amine] | 2970 nM | 15300 nM
2 nM | 3200 nM | CC(C)(C)Nc1nc(-c2ccnc(N)c2)nc2cnccc12 [Example 112, 4-[4-(tert-butylamino)pyrido[3,4-d]pyrimidin-2-yl]pyridin-2-amine] | 1210 nM | 3520 nM
2 nM | 3400 nM | CC(C)(C)Nc1nc(-c2c[nH]nc2C(F)(F)F)nc2cnccc12 [Example 115, N-tert-butyl-2-[3-(trifluoromethyl)-1H-pyrazol-4-yl]pyrido[3,4-d]pyrimidin-4-amine] | 1050 nM | 1660 nM
3 nM | 2200 nM | CC(C)(C)Nc1nc(-c2ccncc2Cl)nc2cnccc12 [Example 116, N-tert-butyl-2-(3-chloropyridin-4-yl)pyrido[3,4-d]pyrimidin-4-amine] | 782 nM | 2180 nM
4 nM | > 10000 nM | Cc1cnccc1-c1nc(NC(C)(C)C)c2ccncc2n1 [Example 117, N-tert-butyl-2-(3-methylpyridin-4-yl)pyrido[3,4-d]pyrimidin-4-amine] | 2310 nM | 4470 nM
5 nM | 4000 nM | CCC(C)(C)Nc1nc(-c2ccncc2Cl)nc2cnccc12 [Example 118, 2-(3-chloropyridin-4-yl)-N-(2-methylbutan-2-yl)pyrido[3,4-d]pyrimidin-4-amine] | 2050 nM | 5010 nM
15 nM | 8000 nM | CC(C)N(C)c1nc(-c2ccncc2F)nc2cnccc12 [Example 122, 2-(3-fluoropyridin-4-yl)-N-methyl-N-(propan-2-yl)pyrido[3,4-d]pyrimidin-4-amine] | 7400 nM | 5800 nM
1 nM | 1000 nM | CC(C)(Nc1nc(-c2ccncc2F)nc2cnccc12)C(F)(F)F [Example 134, 2-(3-fluoropyridin-4-yl)-N-(1,1,1-trifluoro-2-methylpropan-2-yl)pyrido[3,4-d]pyrimidin-4-amine] | 539 nM | 1190 nM
– | > 10000 nM | c1cc(-c2cc(NC3CCCC3)c3ccncc3n2)ccn1 [Example 264, N-cyclopentyl-2-(pyridin-4-yl)-1,7-naphthyridin-4-amine] | 14800 nM | 11200 nM
– | > 10000 nM | CC1(C)CC(O)CCN1c1cc(-c2ccncc2Cl)nc2cnccc12 (stereo not drawn) [Example 283, 1-[2-(3-chloropyridin-4-yl)-1,7-naphthyridin-4-yl]-2,2-dimethylpiperidin-4-ol] | 8250 nM | 14200 nM
